In patent US20110301222A1, “COMBINATION THERAPY FOR THE TREATMENT OF CANCER” (Isis Pharmaceuticals, Inc., priority 2008, published 2011):
Marks after values point to notes of the source that are not given here. In the oligonucleotide strings, read from the 5' end, every base follows the letter of its sugar. An asterisk marks phosphorothioate; unmarked linkages are phosphodiester. Other units and linkages are bracketed, terminal groups are in braces. A string of capitals states the bases alone. e = 2'-O-(2-methoxyethyl) (MOE); [5mC] = 5-methylcytosine; d = 2'-deoxy (DNA)

Key:
Type in all cases: in vivo, athymic nude mice
[1] = test system: A549 Non-Small Cell Lung Cancer Xenograft; experiment: A549 non-small cell lung cancer xenograft tumor volume in mice; details: for Mean Tumor Volume: ASO 50 mg/kg i.v., docetaxel 10 mg/kg IP once weekly, from 8 days after first ASO dose; for Percent Reduction in Mean Tumor Volumes (observed): NSCLC A549, Day 50, vs. vehicle control, negative = reduction, docetaxel 10 mg/kg
Description: (§1) To determine whether the eIF-4E ASO complements or enhances the activity of docetaxel, the effect of the combined use of the eIF-4E ASO and docetaxel on tumor volume in 3 human xenograft cancer models is studied as follows.
(§2) Xenograft studies are carried out as described in Graff et al. (2005) Cancer Res. 65:7462-7469. Five million human cancer cells representing non-small cell lung cancer (line A549; ATCC, accession no. CCL-185), hormone refractory prostate cancer (line PC-3; ATCC, accession no. CRL-1435), and ER-/PR-HER2-breast cancer (line MDA-231; ATCC, accession no. HTB-26) are injected subcutaneously in the flank of 6-8 week old, athymic nude mice (Harlan, Indianapolis, Ind.) in a 1:1 mixture of serum-free growth medium and matrigel (Becton Dickinson, Bedford, Mass., catalogue # 354234). Mice are monitored daily for palpable tumors.
(§3) When tumor volumes reach ˜50-100 mm^3, mice are randomized to treatment groups (Graff et al. (2007) J. Clin. Invest. 117:2638-48). Body weight is monitored each time tumors are measured.
(§4) For treatment, all mice are injected intravenously with the eIF-4E ASO in saline in a total volume of 200 μl. The ASO consists of the nucleotide sequence 5′-[…]-3′ (SEQ ID NO:1), in which every internucleoside linkage is a phosphorothioate linkage, nucleotides 1-5 and 16-20 reading from the 5′ end to the 3′ end each comprise a 2′-O-(2-methoxyethyl) sugar, nucleotides 6-15 are 2′-deoxynucleotides, every cytosine residue is a 5-methylcytosine, and which is in the form of a sodium salt. The mice are first injected with an initial loading dose of 50 mg/kg ASO for 3 consecutive days, followed by 50 mg/kg thrice weekly thereafter.
(§5) Taxotere® (docetaxel) dosing begins 8 days after the first ASO dose to allow time for reduction of eIF-4E protein expression. Mice are dosed with 2.5 or 10 mg/kg Taxotere® (Sanofi-Aventis) intraperitoneally (IP) in 1% ethanol in 5% dextrose water in a volume of 200 μl once weekly for 3 weeks.
(§6) Tumor volumes are calculated measuring the largest (L) and smallest (W) diameters with a caliper. The formula is: Volume=L×W^2×0.534. Tumor volume data are transformed to a log scale to equalize variance across time and treatment groups. The log volume data are analyzed with a two-way repeated measures analysis of variance by time and treatment using SAS PROC MIXED software (SAS Institute Inc, Cary, N.C.) using the spatial power covariance structure. Treatment groups are compared to the control group at each time point and overall. The data may be plotted as means and standard errors for each treatment group versus time. Additivity is assessed in two ways: (1) as an overall interaction effect between the ASO and Taxotere® in the repeated measures analysis, and (2) by using the Bliss Independence method on the final day of the study (C. I. Bliss (1939) Ann. Appl. Biol. 26:585-615). These two methods yield the same results.
(§7) The observed percent reductions in mean tumor volume at the conclusion of each study resulting from the various treatments are shown in Table 4. These are calculated as: […]
(§8) The “Expected if Additive” percent reductions in mean tumor volume shown in Table 4 are calculated using the Bliss Independence definition of additivity, as follows: […]

[2] = test system: PC-3 Hormone-Refractory Prostate Cancer Xenograft; experiment: PC-3 hormone-refractory prostate cancer xenograft tumor volume in mice; details: for Mean Tumor Volume: ASO 50 mg/kg i.v., Taxotere 10 mg/kg IP once weekly, from 8 days after first ASO dose; for Percent Reduction in Mean Tumor Volumes (observed): Prostate PC3, Day 35, vs. vehicle control, negative = reduction, Taxotere 10 mg/kg
Description: as §1, §2, §3, §4, §5, §6, §7, §8

[3] = test system: MDA-231 Breast Cancer Xenograft; experiment: MDA-231 breast cancer xenograft tumor volume in mice; details: for Percent Reduction in Mean Tumor Volumes (observed): Breast MDA-231, Day 33, vs. vehicle control, negative = reduction, + = increase, Taxotere 2.5 mg/kg; for Mean Tumor Volume: ASO 50 mg/kg i.v., Taxotere 2.5 mg/kg IP once weekly, from 8 days after first ASO dose
Description: as §1, §2, §3, §4, §5, §6, §7, §8

| Compound | Mean Tumor Volume ([1]; Day 7) [mm^3] | Mean Tumor Volume ([1]; Day 10) [mm^3] | Mean Tumor Volume ([1]; Day 15) [mm^3] | Mean Tumor Volume ([1]; Day 18) [mm^3] | Mean Tumor Volume ([1]; Day 22) [mm^3] | Mean Tumor Volume ([1]; Day 25) [mm^3] | Mean Tumor Volume ([1]; Day 29) [mm^3] | Mean Tumor Volume ([1]; Day 32) [mm^3] | Mean Tumor Volume ([1]; Day 36) [mm^3] | Mean Tumor Volume ([1]; Day 39) [mm^3] | Mean Tumor Volume ([1]; Day 43) [mm^3] | Mean Tumor Volume ([1]; Day 46) [mm^3] | Mean Tumor Volume ([1]; Day 50) [mm^3] | Percent Reduction in Mean Tumor Volumes (observed) [1] [%] | Mean Tumor Volume ([2]; Day 7) [mm^3] | Mean Tumor Volume ([2]; Day 12) [mm^3] | Mean Tumor Volume ([2]; Day 15) [mm^3] | Mean Tumor Volume ([2]; Day 19) [mm^3] | Mean Tumor Volume ([2]; Day 22) [mm^3] | Mean Tumor Volume ([2]; Day 27) [mm^3] | further results |
| --- | --- | --- | --- | --- | --- | --- | --- | --- | --- | --- | --- | --- | --- | --- | --- | --- | --- | --- | --- | --- | --- |
| d(P-thio) ([2′-O-(2-methoxyethyl)] m5rU-([2′-O-(2-methoxyethyl)] rG-([2′-O-(2-methoxyethyl)] m5rU-([2′-O-(2-methoxyethyl)] m5rC-([2′-O-(2-methoxyethyl)] rA-T-A-T-T-m5C-m5C-T-G-G-A-([2′-O-(2-methoxyethyl)] m5rU-([2′-O-(2-methoxyethyl)] m5rC-([2′-O-(2-methoxyethyl)] m5rC-([2′-O-(2-methoxyethyl)] m5rU-([2′-O-(2-methoxyethyl)] m5rU) (antisense eT*eG*eT*e[5mC]*eA*dT*dA*dT*dT*d[5mC]*d[5mC]*dT*dG*dG*dA*eT*e[5mC]*e[5mC]*eT*eT) [eIF-4E ASO] | 52.7 | 69.4 | 113.7 | 79.1 | 139.5 | 149.0 | 220.1 | 249.5 | 256.6 | 239.1 | 313.2 | 292.3 | 404.0 | −17.3 | 49.8 | 88.3 | 130.3 | 159.0 | 218.8 | 294.5 | Mean Tumor Volume ([2]; Day 29): 343.9 mm^3; Mean Tumor Volume ([2]; Day 33): 424.0 mm^3; Mean Tumor Volume ([2]; Day 35): 491.2 mm^3; Percent Reduction in Mean Tumor Volumes (observed) [2]: −10.2%; Percent Reduction in Mean Tumor Volumes (observed) [3]: +16.6%; Mean Tumor Volume ([3]; Day 5): 78.9 mm^3; Mean Tumor Volume ([3]; Day 8): 129.4 mm^3; Mean Tumor Volume ([3]; Day 12): 166.6 mm^3; Mean Tumor Volume ([3]; Day 15): 221.0 mm^3; Mean Tumor Volume ([3]; Day 19): 268.2 mm^3; Mean Tumor Volume ([3]; Day 22): 356.3 mm^3; Mean Tumor Volume ([3]; Day 26): 435.9 mm^3; Mean Tumor Volume ([3]; Day 29): 574.1 mm^3; Mean Tumor Volume ([3]; Day 33): 626.2 mm^3; Effect on mean tumor volume (in words) ([3]; breast cancer model, ASO alone): non-statistically significant increase in mean tumor volume |
| CC(=O)O[C@@]12CO[C@@H]1C[C@H](O)[C@@]1(C)C(=O)[C@H](O)C3=C(C)[C@@H](OC(=O)[C@H](O)[C@@H](NC(=O)OC(C)(C)C)c4ccccc4)C[C@@](O)([C@@H](OC(=O)c4ccccc4)[C@H]21)C3(C)C [Docetaxel, (2R,3S)—N-carboxy-3-phenylisoserine,N-tert-butyl ester, 13-ester with 5β-20-epoxy-1,2α,4,7β,10β,13α-hexahydroxytax-11-en-9-one 4-acetate 2-benzoate, trihydrate, reference compound] | 49.7 | 56.7 | 114.8 | 70.0 | 135.8 | 170.1 | 257.0 | 261.5 | 290.0 | 282.3 | 342.6 | 310.2 | 343.8 | −29.6 | 46.3 | 106.8 | 134.7 | 164.8 | 171.7 | 157.4 | Mean Tumor Volume ([2]; Day 29): 162.7 mm^3; Mean Tumor Volume ([2]; Day 33): 161.6 mm^3; Mean Tumor Volume ([2]; Day 35): 167.0 mm^3; Percent Reduction in Mean Tumor Volumes (observed) [2]: −69.5%*; Percent Reduction in Mean Tumor Volumes (observed) [3]: −1.4%; Mean Tumor Volume ([3]; Day 5): 78.7 mm^3; Mean Tumor Volume ([3]; Day 8): 130.1 mm^3; Mean Tumor Volume ([3]; Day 12): 180.9 mm^3; Mean Tumor Volume ([3]; Day 15): 221.0 mm^3; Mean Tumor Volume ([3]; Day 19): 270.3 mm^3; Mean Tumor Volume ([3]; Day 22): 333.9 mm^3; Mean Tumor Volume ([3]; Day 26): 384.9 mm^3; Mean Tumor Volume ([3]; Day 29): 450.4 mm^3; Mean Tumor Volume ([3]; Day 33): 529.6 mm^3 |
